Results reported in US6942963B1, “Methods for identifying treatments for neurotoxicity in Alzheimer's disease caused by β-amyloid peptides” (Massachusetts Institute of Technology, priority 1997, dated 2005).
Where “and” joins values, the source holds several entries; their conditions need not be identical. Equal values may be shown once. Entries after “also recorded” stand apart in the source; their conditions may differ. Read-outs that look alike come from different tables or passages of the source. Non-standard residues stand in square brackets, D forms with d. No end group written: not given here.

Legend:
Type in all cases: cell-based, human
[1] = system: hNT cells; assay: Internal calcium concentration [Ca2+]int in hNT cells (fura-2) on exposure to β-amyloid peptide or test agent alone; conditions: for [Ca^2+]int after exposure to unfiltered peptide: hNT cells in Tyr2Ca, peptide at 20 μM (βAP1-42 aggregated 37C, 24 hr), controls 80 nM and 50 nM; for % increase in [Ca^2+]int: unfiltered suspension in Tyr2Ca; for effect of decoy peptide by itself on cytosolic calcium concentrations: decoy peptide alone at 20 μM, filtered stocks, Tyrode's/2 mM Ca
[2] = system: hNT cells; assay: Membrane depolarization of hNT cells by aggregated Aβ1-42 (DiBAC4(3) fluorescence); conditions: for % ΔF / Δ EM: aggregated Aβ1-42 20 μM
Method: Changes in membrane potential were measured using the fluorescent potentiometric probe DiBAC4(3), (Molecular Probes, Inc., Eugene, Oreg.). This dye, bis-(1,3-dibutylbarbituric acid)trimethine oxonol, detects membrane depolarization, because it enters depolarized cells and binds to intracellular proteins or membranes. […] Hyperpolarization results in extrusion of the anionic dye and thus a decrease in fluorescence. Our measurements use two dyes, fura-2 and DiBAC4(3), since these dyes have excitation wavelengths that are far apart, but have similar emission wavelengths. DiBAC4(3) was added to fura-2AM loaded hNT cells at a concentration of 100 nM in Tyr2Ca. Rapidly alternating measurements of fura-2 (excited at 340 & 380 nm) and DiBAC4(3) (excited at 490 nm) were performed using emission at 516 nm. Both dyes were measured using the special “Fura2-Fluo3” filter set 7400 from Chroma Technology (Brattleboro, Vt.), a Zeiss Axiovert 100 inverted microscope and a photometry system (model “Delta Ram” from Photon Technology International, Inc., Monmouth Junction, N.J.).
The bis-oxonol dye DiBAC4(3) was used as an indicator of transmembrane electrical potential changes (Langheinrich and Daut, J. Physiol. 502:397-408, 1997) when our hNT cells were treated with, for example, the β-amyloid peptide Aβ1-42. The use of this dye enabled us to monitor groups of 5-15 neurons, rather than single cells as would be the case with patch clamping methods. We expected great variability from cell to cell, as was found in our earlier patch clamp work (Sanderson et al., Brain Res. 744:7-14, 1997). The method has been used by many laboratories for the determination of membrane potentials in different cell types. Fluorescence is increased upon membrane depolarization as more dye enters the cytosol, resulting in increased binding to proteins (Braiuner et al., Biochim. Biophys. Acta 771:[…], 1984). Partitioning of bis-oxonol dye between the plasma membrane and the cytosol follows the Nernst equation (Langheinrich and Daut, 1997). Unless otherwise indicated, all measurements were carried out in Tyrode's solution containing 2 mM Ca.
We calibrated the gross fluorescence as a function of membrane potential by treating a culture of hNT neurons, bathed in Tyrode's 2Ca buffer with the usual 3 mM K^+, containing 97 nM DiBAC4(3), with Tyrode's 2Ca buffer containing 40 mM KCl. We measured the gross fluorescence at excitation=490 nm and emission=510 nm for the depolarization by KCl and for depolarization by the Aβ1-42 peptide. We used the formula proposed by Langheinrich and Daut, 1997: % ΔF=(1−Fmin/Fmax)*100=ΔEMmV
where Fmin=fluorescence before treatment, Fmax=fluorescence during treatment, ΔEM mV is the change in membrane potential brought about by the treatment. The calculation based on the expected depolarization by changing from 3 mM KCl to 40 MM KCl gave a value of ΔEM=3.8 mV/1% ΔF.
Groups of hNT neuronal cells (5-17) were exposed to Aβ1-42 (20 μM) that had been incubated at 37° C. for 48 hours; 97 nM DiBAC4(3) was present. Fluorescence was measured as described above; Ex=490 nm, Em=510 nm.

[3] = system: βAP1-42-induced calcium influx, hNT cells; assay: βAP1-42 (Aβ1-42) aggregate-induced calcium influx in hNT cells: effect of decoy peptides and channel blockers
[4] = system: βAP25-35-induced calcium influx, hNT cells; assay: βAP25-35-induced calcium influx in hNT cells: effect of channel antagonists and decoy peptides; conditions: for effect on increase in internal calcium concentration due to βAP25-35: decoy peptide mixed with βAP25-35 at ratio 1:1 (20 μM+20 μM), hNT cells; for effect on βAP25-35-induced calcium influx: βAP25-35 21 μM
[5] = hNT cells, aggregated Aβ1-42 in Tyrode's medium without calcium

Compound: GSNKGAIIGLM [βAP25-35]
- [Ca^2+]int after exposure to unfiltered peptide [1]: approximately 200 nM
- internal calcium concentration after restoring external calcium to 2 mM without extra peptide ([1]; hNT cells previously exposed to 50 μM βAP25-35 in Tyrode's/0 mM Ca): ~200 % of control levels
- [Ca^2+]int relative to control ([1]; hNT cells, 21 μM βAP25-35, single experiment, 4 cells): 270 % of control
- internal calcium in external Tyrode's solution without calcium ([1]; hNT cells, Tyrode's/0 mM Ca plus 50 μM βAP25-35, even after 15 minutes): no increase in internal calcium
- % increase in [Ca^2+]int ([1]; hNT cells, [βAP25-35] 10 μM): 170 ± 85%
- % increase in [Ca^2+]int ([1]; hNT cells, [βAP25-35] 20 μM): 286 ± 179%
- % increase in [Ca^2+]int ([1]; hNT cells, [βAP25-35] 50 μM): 343 ± 245%
- % increase in [Ca^2+]int ([1]; hNT cells, [βAP25-35] 130 μM): 623 ± 555%
- % increase in [Ca^2+]int ([1]; hNT cells, [βAP25-35] 172 μM): 367 ± 108%
- % increase in [Ca^2+]int ([1]; hNT cells, [βAP25-35] 334 μM): 508 ± 561%
- % increase in [Ca^2+]int ([1]; hNT cells, [βAP25-35] 112-114 μM): 366 ± 260%

Compound: [Cl][Al]([Cl])[Cl] [AlCl3]
- calcium influx induced by agent by itself ([1]; hNT neuronal cells, from external calcium sources): powerfully induces calcium influx

Compound: βAP1-42: β-amyloid peptide, SEQ ID NO:20, purchased from Quality Controlled Biochemicals
- % ΔF ([2]; [Ca^2+] 0 mM, Na^+): 51.1%
- % ΔF ([2]; [Ca^2+] 0.4 mM, Na^+): 8.3%
- Δ EM ([2]; [Ca^2+] 0.4 mM, Na^+): +31.6 mV
- % ΔF ([2]; [Ca^2+] 2 mM, ext. cation NMDG^+): 44.1%
- % ΔF ([2]; [Ca^2+] 2 mM, ext. cation Na^+, no addition): 15.7% and 14.8%
- % ΔF ([2]; [Ca^2+] 2 mM, ext. cation TEA^+): 44.8%
- % ΔF ([2]; [Ca^2+] 10 mM, Na^+): 15.3%
- Δ EM ([2]; [Ca^2+] 10 mM, Na^+): +58.3 mV
- membrane depolarization caused by pre-aggregated Aβ1-42 ([2]; cultured hNT neuronal cells, Tyrode's/2Ca): large membrane depolarization
- membrane depolarization with external Na^+ replaced ([2]; external Na^+ replaced with equal concentration of TEA^+ or NMDG^+): large membrane depolarization
- membrane depolarization without external calcium [2, 5]: greatly increased membrane depolarization
- calcium influx by Aβ1-42 not incubated at 37° C. ([1]; Aβ1-42 sample not incubated (protofibrils)): did not produce the characteristic calcium influx
- [Ca^2+]int after exposure to unfiltered peptide [1]: approximately 94 nM
- cytosolic calcium level after spontaneous desensitization ([1]; hNT cells, aggregated Aβ1-42): ~200 % of control
- new plateau calcium level relative to control values ([1]; hNT cells, aggregated Aβ1-42, other experiments with longer time): about twofold
- rise in cytosolic calcium without external calcium [1, 5]: almost no rise in cytosolic calcium
- cytosolic calcium upon addition of aggregated Aβ1-42 ([1]; hNT cells, fura-2, Tyrode's/2Ca): large increase in cytosolic calcium
- concentration dependence of calcium influx ([1]; hNT cells, increasing βAP1-42 concentration): strong concentration dependence

Compound: NC(CO)(CO)CO [TRIS^+, Tromethamine]
- effect on membrane depolarization by aggregated Aβ1-42 ([2]; hNT cells, 10 mM TRIS^+): moderate decrease in membrane depolarization; also recorded: partially blocks membrane depolarization

Compound: ^+NH3.P.V.P.R^+.P.I.P.A.P.COO^− (H-[dP][dV][dP][dR][dP][dI][dP][dA][dP]-OH; also: modified) [DP17]
- effect on βAP1-42 calcium influx ([3]; βAP1-42 25 μM coincubated with equimolar decoy peptide at 37° C. for 44 hours, hNT cells): did not reduce the effect of βAP1-42 on the calcium influx

Compound: NC1=N[C@H](O)[C@H]2[C@H]3O[C@]4(O)O[C@@H]([C@@H](O)[C@@]2(N1)[C@@H]4O)[C@]3(O)CO [TTX, tetrodotoxin]
- effect on rise in cytosolic calcium caused by aggregated Aβ1-42 [3]: allowed both membrane depolarization and a rise in cytosolic calcium levels; also recorded: the rise in cytosolic calcium
- % ΔF in presence of addition [2]: 17.3%
- effect on membrane depolarization by aggregated Aβ1-42 [2]: allowed both membrane depolarization and a rise in cytosolic calcium levels; also recorded: allows both membrane depolarization
- Δ EM in presence of addition [2]: +65.7 mV

Compound: ^+NH3-TVIGTIGGG-CONH2 (H-[dT][dV][dI]G[dT][dI]GGG-NH2; SMILES CC[C@@H](C)[C@@H](NC(=O)[C@H](NC(=O)[C@H](N)[C@H](C)O)C(C)C)C(=O)NCC(=O)N[C@@H](C(=O)N[C@@H](C(=O)NCC(=O)NCC(=O)NCC(N)=O)[C@H](C)CC)[C@H](C)O) [DP3]
- effect of decoy peptide by itself on cytosolic calcium concentrations ([1]; hNT cells): raise cytosolic calcium concentrations somewhat
- effect of unfiltered decoy peptide alone on [Ca^2+]int ([1]; hNT cells, unfiltered DP3 at 20 μM): an increase in [Ca^2+]int
- effect on calcium influx when decoy peptide added prior to βAP25-35 aggregation ([4]; DP3 in Tyrode's/2 mM Ca for 1 hour, then βAP25-35 added, both 20 mM [sic]): reduced the calcium influx induced by βAP25-35; also recorded: can reduce the βAP25-35-induced Ca^2+ influx
- effect on increase in internal calcium concentration due to βAP25-35 [4]: reduced or abolished the increase in the internal calcium concentration
- effect on ability of βAP25-35 to induce influx of calcium ([4]; unfiltered DP3 mixed with βAP25-35 at molar ratios of 1:2 or greater): marked decrease in the ability of βAP25-35 to induce influx of calcium
- effect on calcium influx when decoy peptide added after βAP25-35 aggregation ([4]; βAP25-35 aggregated 2 hours before DP3 addition, both 20 mM [sic]): did not reduce the induction of calcium influx

Compound: O=c1[nH]c2cc([N+](=O)[O-])c([N+](=O)[O-])cc2[nH]c1=O [DNQX, 6,7-dinitroquinoxaline-2,3(1H, 4H)-dione]
- effect on βAP25-35-induced calcium influx ([4]; DNQX at 8 μM, applied together): completely prevented

Compound: [Cl-].[Cl-].[Mg+2] [magnesium chloride]
- block of calcium influx into hNT neuronal cells caused by βAP25-35 [4]: blocks the influx of Ca^2+; also recorded: can be blocked
- effect on βAP25-35-induced influx of calcium [4]: totally blocked

Compound: ^+NH3.A.G.V.I.S.I.G.G.G (AGVISIGGG; not fully specified; printed as ^+NH3.A.G.V.I.S.I.G.G.G) [DP7]
- effect of decoy peptide by itself on cytosolic calcium concentrations ([1]; hNT cells): raise cytosolic calcium concentrations somewhat
- effect on increase in internal calcium concentration due to βAP25-35 [4]: reduced or abolished the increase in the internal calcium concentration

Compound: NC(CCCP(=O)(O)O)C(=O)O (racemic) [DL-AP5, DL-2-amino-5-phosphonovaleric acid]
- block of calcium influx into hNT neuronal cells caused by βAP25-35 ([4]; concentration not stated): lack of blocking effect
- effect on βAP25-35-induced calcium influx ([4]; DL-AP5 at 50 μM): failed to prevent
- effect on βAP25-35-induced calcium influx ([4]; DL-AP5 at 200 μM): failed to prevent

Compound: ^+NH3.T.T.I.V.S.T.G.G.G (H-[dT][dT][dI][dV][dS][dT]GGG) [DP6]
- effect of decoy peptide by itself on cytosolic calcium concentrations ([1]; hNT cells): raise cytosolic calcium concentrations somewhat
- effect on increase in internal calcium concentration due to βAP25-35 [4]: reduced or abolished the increase in the internal calcium concentration

Compound: ^+NH3.T.G.I.I.A.S.G.G.G. (H-[dT]G[dI][dI][dA][dS]GGG) [DP4]
- effect of decoy peptide by itself on cytosolic calcium concentrations ([1]; hNT cells): no effect on cytosolic calcium concentrations
- effect on increase in internal calcium concentration due to βAP25-35 [4]: reduced or abolished the increase in the internal calcium concentration

Compound: O=C(O)CN(CCOCCOCCN(CC(=O)O)CC(=O)O)CC(=O)O [EGTA]
- internal calcium with chelator in external solution in addition to βAP25-35 ([4]; 20 mM EGTA in addition to βAP25-35 peptide): decreased internal calcium to control levels
